Results on eight molecules are retold here after patent US8314131B2, “Triazole fused heteroaryl compounds and methods of use thereof” (Amgen Inc., priority 2007, dated 2012).

Usually IC50 stands for the midpoint of a concentration-inhibition curve.

One experiment concerns the target p38α (Homo sapiens, UniProt Q16539). As to the kind of experiment: p38 in-vitro HTRF enzyme assay. The settings on record: recombinant human enzyme, read-out: p38a IC50. It is filed as biochemical. The protocol:
p38 In-Vitro HTRF Enzyme Assay
The compounds of the invention can be tested for their respective affinities for the p38 protein using a conventional p38 in-vitro enzyme activity assay. For example, a P38-alpha HTRF assay may be used to measure the protein's in-vitro phosphorylation activity, and the data analyzed using time resolved fluorimetry techniques (FRET). A p38 HTRF assay is as follows. The kinase reaction buffer for p38α, p38β, p38δ and p38γ HTRF assays consists of 50 mM Tris-pH 7.5, 5 mM MgCl2, 0.1 mg/mL BSA, 100 μM Na3VO4 and 0.5 mM DTT. The HTRF detection buffer contains 100 mM HEPES-pH 7.5, 100 mM NaCl, 0.1% BSA, 0.05% Tween-20, and 10 mM EDTA. Each compound was dissolved in 100% DMSO and serially diluted (3 fold, 10 point) in a polypropylene 96-well microtiter plate (drug plate). The final starting concentration of the compound in the p38α […]and p38β enzymatic assays was about 1 μM. The final starting concentration of each compound in the p38δ and p38γ enzymatic assays was about 10 μM. The p38α, p38β, p38δ and p38γ kinase reactions were carried out in a polypropylene 96-well black round bottom assay plate in total volume of 30 μL kinase reaction buffer. Appropriate concentration of purified and activated enzyme (recombinant human) was mixed with indicated concentration of ATP and 100 nM GST-ATF2-Avitag, in the presence or absence (HI control) of each compound. In the absence of enzyme, the background was measured as LO control. HI controls and LO controls contained only DMSO. The reaction was allowed to incubate for 1 hour at RT. […] After 60 minutes incubation at room temperature, the assay plate was read in a Discovery Plate Reader. The wells were excited with coherent 320 nm light and the ratio of delayed ([…] post excitation) emissions at […] (native europium fluorescence) and 665 nm (europium fluorescence transferred to allophycocyanin—an index of substrate phosphorylation) was determined (Park et al, 1999). The resulting data was analyzed by taking the proportion of substrate phosphorylated in the kinase reaction in the presence of each individual compound and comparing it with that phosphorylated in the presence of DMSO vehicle alone (HI control). The data was calculated using the formula: % control (POC)=(compound−average LO)/(average HI−average LO)*100. Data (consisting of POC and inhibitor concentration in μM) was fitted to a 4-parameter equation (y=A+((B−A)/(1+((x/C)^D))), where A is the minimum y (POC) value, B is the maximum y (POC), C is the x (compound concentration) at the point of inflection and D is the slope factor, using a Levenburg-Marquardt non-linear regression algorithm. The inhibition constant (Ki) of the inhibitor was estimated from the IC50 (compound concentration at the point of inflection C) using the Cheng-Prussof equation: Ki=IC50/(1+S/Km), where S is the ATP substrate concentration, and Km is the Michaelis constant for ATP as determined experimentally. All results were expressed as the mean±the standard error of the mean. Data acquisition and non-linear regression algorithms were performed using Activity Base v5.2 and XLfit software v4.1 respectively. Additional assay information may be obtained in Park Y W, Cummings R T, Wu L, et al. Homogeneous Proximity Tyrosine Kinase Assays: Scintillation Proximity Assay versus Homogeneous Time-Resolved Fluorescence. Analytical Biochemistry. 1999; 269: 94-104.
In general terms: In TR-FRET formats the signal depends on donor and acceptor labels being close together.

For a further experiment, the system named is IL-1. Description: LPS induced IL-1 cell assay (LPS-induced release of IL-1β from monocytes). It is filed as cell-based. The settings on record: Homo sapiens, Monocyte; LPS-activated monocytes. As to the method: Lipopolysaccharide-Activated Monocyte TNF Production Assay
Test compounds were evaluated in vitro for the ability to inhibit the production of TNF by monocytes activated with bacterial lipopolysaccharide (LPS). Fresh residual source leukocytes (a byproduct of plateletpheresis) were obtained from a local blood bank, and peripheral blood mononuclear cells (PBMCs) were isolated by density gradient centrifugation on Ficol-Paque Plus (Pharmacia). PBMCs were suspended at 2×10^6/mL in DMEM supplemented to contain 2% FCS, 10 mM, 0.3 mg/mL […], 100 U/mL penicillin G and […] streptomycin sulfate (complete media). Cells were plated into Falcon flat bottom, 96 well culture plates (200 μL/well) and cultured overnight at 37° C. and 6% CO2. Non-adherent cells were removed by washing with 200 μl/well of fresh medium. Wells containing adherent cells (˜70% monocytes) were replenished with 100 μL of fresh medium.
Preparation of Test Compound Stock Solutions
Test compounds were dissolved in […]. Compound stock solutions were prepared to an initial concentration of […]. Stocks were diluted initially to 20-200 μM in complete media. Nine two-fold serial dilutions of each compound were then prepared in complete medium.
Treatment of Cells with Test Compounds and Activation of TNF Production with Lipopolysaccharide
One hundred microliters of each test compound dilution were added to microtiter wells containing adherent monocytes and 100 μL complete medium. Monocytes were cultured with test compounds for 60 min at which time 25 μL of complete medium containing 30 ng/mL lipopolysaccharide from E. coli K532 were added to each well. Cells were cultured an additional 4 hrs. Culture supernatants were then removed and TNF presence in the supernatants was quantified using an ELISA.
Compounds of the invention can also be shown to inhibit LPS-induced release of IL-1β, IL-6 and/or IL-8 from monocytes by measuring concentrations of IL-1β, IL-6 and/or IL-8 by methods well known to those skilled in the art. […] Thus, the compounds of the invention may lower elevated levels of TNF-α, IL-1, IL-6, and IL-8 levels. Reducing elevated levels of these inflammatory cytokines to basal levels or below is favorable in controlling, slowing progression, and alleviating many disease states.

The subject of experiment [1] is THP1 cells (LPS-induced TNF-α). Description: Lipopolysaccharide-activated THP1 cell TNF production assay. The settings on record: Homo sapiens, THP-1, TNF-α secretion, read-out: THP-1 cell based assay IC50. The protocol: Lipopolysaccharide-Activated THP1 Cell TNF Production Assay
THP1 cells are resuspended in fresh THP1 media (RPMI 1640, 10% heat-inactivated FBS, 1XPGS, 1XNEAA, plus 30 μM βME) at a concentration of 1E6/mL. One hundred microliters of cells per well are plated in a polystyrene 96-well tissue culture. One microgram per mL of bacterial LPS is prepared in THP1 media and is transferred to the wells. Test compounds are dissolved in 100% DMSO and are serially diluted 3-fold in a polypropylene 96-well microtiter plate (drug plate). HI control and LO control wells contain only DMSO. One microliter of test compound from the drug plate followed by 10 μL of LPS are transferred to the cell plate. The treated cells are induced to synthesize and secrete TNF-α at 37° C. for 3 h. Forty microliters of conditioned media are transferred to a 96-well polypropylene plate containing 110 μL of ECL buffer (50 mM Tris-HCl pH 8.0, 100 mM NaCl, 0.05% Tween 20, 0.05% NaN3 and 1% FBS) supplemented with 0.44 nM MAB610 monoclonal Ab (R&D Systems), 0.34 nM ruthenylated AF210NA polyclonal Ab (R&D Systems) and 44 μg/mL sheep anti-mouse M280 Dynabeads (Dynal). After a 2 h incubation at room temperature with shaking, the reaction is read on the ECL M8 Instrument (IGEN Inc.). A low voltage is applied to the ruthenylated TNF-α immune complexes, which in the presence of TPA (the active component in Origlo), results in a cyclical redox reaction generating light at […]. The amount of secreted TNF-α in the presence of compound compared with that in the presence of DMSO vehicle alone (HI control) is calculated using the formula: % control (POC)=(cpd−average LO)/(average HI−average LO)*100. Data (consisting of POC and inhibitor concentration in μM) is fitted to a 4-parameter equation (y=A+((B−A)/(1+((x/C)^D))), where A is the minimum y (POC) value, B is the maximum y (POC), C is the x (cpd concentration) at the point of inflection and D is the slope factor) using a Levenburg-Marquardt non-linear regression algorithm.

SMILES strings stand for the structures. A value given as a limit tells only on which side of the number the result lay.

p38α, sequence (Q16539 whole entry): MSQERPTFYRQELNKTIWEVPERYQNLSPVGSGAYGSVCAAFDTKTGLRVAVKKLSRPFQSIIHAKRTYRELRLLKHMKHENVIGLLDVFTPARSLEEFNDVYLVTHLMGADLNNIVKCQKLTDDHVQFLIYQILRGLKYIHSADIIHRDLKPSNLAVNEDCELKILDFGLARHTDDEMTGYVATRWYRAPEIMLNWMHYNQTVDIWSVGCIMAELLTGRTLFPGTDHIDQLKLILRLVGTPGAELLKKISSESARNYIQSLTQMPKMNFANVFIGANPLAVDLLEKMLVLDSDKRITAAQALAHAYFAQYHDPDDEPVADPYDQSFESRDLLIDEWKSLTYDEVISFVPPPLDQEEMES

Consider `Cc1ccc(C(=O)NC(C)C)cc1-c1ccc2c(c1)nnn2C(C)C` [Example 4, 4-methyl-N-(1-methylethyl)-3-(1-(1-methylethyl)-1H-1,2,3-benzotriazol-5-yl)benzamide], for which the concentration for half-maximal inhibition (IC50) on p38α is below 25 nM; in the experiment on IL-1 it was 1000 to 5000 nM; in experiment [1], 250 to 1000 nM.
Turning to `Cc1ccc(C(=O)NC2CC2)cc1-c1ccc2c(c1)nnn2C(C)C` [Example 5, N-cyclopropyl-4-methyl-3-(1-(1-methylethyl)-1H-benzotriazol-5-yl)benzamide], the 50% inhibitory concentration (IC50) at p38α is below 25 nM; in the experiment with IL-1, 1000 to 5000 nM; in experiment [1], 25 to 100 nM.
In the same order, the values of `Cc1c(F)cc(C(=O)NC2CC2)cc1-c1ccc2c(c1)nnn2-c1ccccc1Cl` [Example 6, 3-(1-(2-chlorophenyl)-1H-benzotriazol-5-yl)-N-cyclopropyl-5-fluoro-4-methylbenzamide] are below 25 nM, 100 to 250 nM and below 25 nM.
On to `Cc1ccc(C(=O)NC2CC2)cc1-c1ccc2c(c1)nnn2-c1ccccc1Cl` [Example 7, 3-(1-(2-chlorophenyl)-1H-benzotriazol-5-yl)-N-cyclopropyl-4-methylbenzamide], for which the half-maximal inhibitory concentration (IC50) was below 25 nM at p38α, 1000 to 5000 nM in the experiment with IL-1 and 25 to 100 nM in experiment [1].
The matching figures for `Cc1cc(F)ccc1-n1nnc2cc(-c3cc(C(=O)NC4CC4)cc(F)c3C)ccc21` [Example 8, N-cyclopropyl-3-fluoro-5-(1-(4-fluoro-2-methylphenyl)-1H-benzotriazol-5-yl)-4-methylbenzamide]: below 25 nM, 100 to 250 nM and below 25 nM.
For `Cc1c(F)cc(C(=O)Nc2ccnn2C)cc1-c1ccc2c(c1)nnn2-c1ccccc1Cl` [Example 9, 3-(1-(2-chlorophenyl)-1H-benzotriazol-5-yl)-5-fluoro-4-methyl-N-(1-methyl-1H-pyrazol-5-yl)benzamide], the 50% inhibitory concentration (IC50) was below 25 nM on p38α, 25 to 100 nM with IL-1 and below 25 nM in experiment [1].
As to `Cc1c(F)cc(C(=O)NC2CC2)cc1-c1ccc2c(c1)nnn2C(C)(C)C` [Example 10, N-cyclopropyl-3-(1-(1,1-dimethylethyl)-1H-benzotriazol-5-yl)-5-fluoro-4-methylbenzamide], the IC50 at p38α is below 25 nM; in the experiment on IL-1, 1000 to 5000 nM; in experiment [1] it was below 25 nM.
For the molecule `Cc1c(F)cc(C(=O)NC2CC2)cc1-c1ccc2c(c1)nnn2C1CCOCC1` [Example 11, N-cyclopropyl-3-fluoro-4-methyl-5-(1-(tetrahydro-2H-pyran-4-yl)-1H-benzotriazol-5-yl)benzamide], the 50% inhibitory concentration (IC50) (with IL-1; in experiment [1]) was 25 to 100 nM each time.
